Assay results as given in PubChem BioAssay AID330 (DTP/NCI, 2004).
Several values for one entry are separate records, joined by “and”; a condition that tells them apart may be missing. Equal values may be shown once. Toxic doses and inconclusive results are not listed. The calls were made as follows: active = survival T/C of 150% or more; inactive = T/C below 125% in these data. Peptide text beside a SMILES is read from it. * marks the point of attachment. Cbz = O=C(OCc1ccccc1)*

System: P388 leukemia ip, CD2F1 mice, survival T/C
Test: NCI In Vivo Anticancer Drug Screen. Data for tumor model P388 Leukemia (intraperitoneal) in CD2F1 (CDF1) mice
Conditions: endpoint: median survival time, higher = longer survival
How it was run: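 Mice carrying the transplanted tumor received test compound or vehicle. Survival was recorded in each group, and the value is the treated-group measurement divided by that of the vehicle-treated control group.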

[1] = dose: 60.0 mg/kg/injection, schedule: Q01DX005 (ip), vehicle: saline with Tween-80
[2] = dose: 50.0 mg/kg/injection, schedule: Q01DX009 (ip), vehicle: Klucel (hydroxypropylcellulose) (HPC)
[3] = dose: 100.0 mg/kg/injection, schedule: Q01DX009 (ip), vehicle: Klucel (hydroxypropylcellulose) (HPC)
[4] = dose: 100.0 mg/kg/injection, schedule: Q01DX009 (ip), vehicle: saline with Tween-80
[5] = dose: 12.5 mg/kg/injection, schedule: Q01DX009 (ip), vehicle: Klucel (hydroxypropylcellulose) (HPC)
[6] = dose: 25.0 mg/kg/injection, schedule: Q01DX009 (ip), vehicle: Klucel (hydroxypropylcellulose) (HPC)
[7] = dose: 12.5 mg/kg/injection, schedule: Q01DX009 (ip), vehicle: saline
[8] = dose: 25.0 mg/kg/injection, schedule: Q01DX009 (ip), vehicle: saline
[9] = dose: 50.0 mg/kg/injection, schedule: Q01DX005 (ip), vehicle: Klucel (hydroxypropylcellulose) (HPC)
[10] = dose: 100.0 mg/kg/injection, schedule: Q01DX005 (ip), vehicle: Klucel (hydroxypropylcellulose) (HPC)
[11] = dose: 200.0 mg/kg/injection, schedule: Q01DX005 (ip), vehicle: Klucel (hydroxypropylcellulose) (HPC)
[12] = dose: 50.0 mg/kg/injection, schedule: Q01DX009 (ip), vehicle: saline
[13] = dose: 100.0 mg/kg/injection, schedule: Q01DX009 (ip), vehicle: saline

Measured: T/C

COc1cc(Br)c(-c2coc3c(OC)c(OC)ccc3c2=O)cc1OC
inactive: dose: 15.0 mg/kg/injection, schedule: Q01DX005 (ip), vehicle: saline with Tween-80 89 % of control | dose: 30.0 mg/kg/injection, schedule: Q01DX005 (ip), vehicle: saline with Tween-80 88 % of control | [1] 86 % of control

CC(C)C/C=C\CCCCCCCCCC(=O)NCC(=O)O
inactive: dose: 12.5 mg/kg/injection, schedule: Q01DX009 (ip), vehicle: distilled water + Tween-80 93 % of control | dose: 25.0 mg/kg/injection, schedule: Q01DX009 (ip), vehicle: distilled water + Tween-80 92 % of control | dose: 50.0 mg/kg/injection, schedule: Q01DX009 (ip), vehicle: distilled water + Tween-80 95 % of control | dose: 100.0 mg/kg/injection, schedule: Q01DX009 (ip), vehicle: distilled water + Tween-80 93 % of control | dose: 200.0 mg/kg/injection, schedule: Q01DX009 (ip), vehicle: distilled water + Tween-80 100 % of control

C#CC(CC)(CC)N1CC(OC(=O)NCC=C)C1
inactive: [2] 100 % of control | [3] 97 % of control | dose: 200.0 mg/kg/injection, schedule: Q01DX009 (ip), vehicle: Klucel (hydroxypropylcellulose) (HPC) 95 % of control

O=[N+]([O-])c1ccc2c(c1)Oc1cccnc1[Se]2
inactive: dose: 60.0 mg/kg/injection, schedule: Q01DX005 (ip), vehicle: Klucel (hydroxypropylcellulose) (HPC) 105 % of control | dose: 120.0 mg/kg/injection, schedule: Q01DX005 (ip), vehicle: Klucel (hydroxypropylcellulose) (HPC) 95 % of control | dose: 240.0 mg/kg/injection, schedule: Q01DX005 (ip), vehicle: Klucel (hydroxypropylcellulose) (HPC) 90 % of control

CCN(N=Nc1ccc(OC)cc1)c1ccc(OC)cc1
inactive: dose: 12.5 mg/kg/injection, schedule: Q01DX009 (ip), vehicle: saline with Tween-80 103 % of control and 96 % of control | dose: 25.0 mg/kg/injection, schedule: Q01DX009 (ip), vehicle: saline with Tween-80 108 % of control and 109 % of control | dose: 50.0 mg/kg/injection, schedule: Q01DX009 (ip), vehicle: saline with Tween-80 116 % of control and 117 % of control | [4] 100 % of control and 124 % of control

Nc1ccc(-c2csc(-c3ccc(Br)cc3)n2)cc1
inactive: [5] 100 % of control | [6] 91 % of control | [2] 88 % of control

FC(F)(F)C1=C(C(F)(F)F)SP23(OCCC(CO2)O3)S1 (stereo unspecified)
inactive: [5] 107 % of control and 108 % of control | [6] 106 % of control and 114 % of control | [2] 109 % of control and 114 % of control | [3] 107 % of control and 116 % of control

[N-]=[N+]=NCC1OC(n2cnc3c(N)ncnc32)CC1O (stereo unspecified)
inactive: dose: 60.0 mg/kg/injection, schedule: Q01DX005 (ip), vehicle: saline 104 % of control | dose: 120.0 mg/kg/injection, schedule: Q01DX005 (ip), vehicle: saline 100 % of control | dose: 240.0 mg/kg/injection, schedule: Q01DX005 (ip), vehicle: saline 104 % of control

c1ccc(C(NC2CC3CCC2C3)c2ccccc2)cc1 (stereo unspecified)
inactive: dose: 37.5 mg/kg/injection, schedule: Q01DX009 (ip), vehicle: saline with Tween-80 100 % of control | dose: 75.0 mg/kg/injection, schedule: Q01DX009 (ip), vehicle: saline with Tween-80 95 % of control

CCCCn1ccnc1C
inactive: dose: 6.25 mg/kg/injection, schedule: Q01DX009 (ip), vehicle: saline 109 % of control | [7] 91 % of control | [8] 103 % of control

COc1ccc2c(c1O)-c1cc(O)cc3c1C(C2)NCC3 (stereo unspecified)
inactive: dose: 0.32 mg/kg/injection, schedule: Q04DX003 (ip), vehicle: DMSO 98 % of control | dose: 0.63 mg/kg/injection, schedule: Q04DX003 (ip), vehicle: DMSO 95 % of control | dose: 1.25 mg/kg/injection, schedule: Q04DX003 (ip), vehicle: DMSO 99 % of control | dose: 2.5 mg/kg/injection, schedule: Q04DX003 (ip), vehicle: DMSO 98 % of control | dose: 5.0 mg/kg/injection, schedule: Q04DX003 (ip), vehicle: DMSO 100 % of control

CC(=O)OC1CC(C(C)C2CC(C)=C(C)C(=O)O2)C2(C)CCC3C(CC4OC45C(O)C=CC(=O)C35C)C12O (stereo unspecified)
inactive: dose: 7.5 mg/kg/injection, schedule: Q01DX005 (ip), vehicle: Klucel (hydroxypropylcellulose) (HPC) 108 % of control | dose: 15.0 mg/kg/injection, schedule: Q01DX005 (ip), vehicle: Klucel (hydroxypropylcellulose) (HPC) 105 % of control | dose: 30.0 mg/kg/injection, schedule: Q01DX005 (ip), vehicle: Klucel (hydroxypropylcellulose) (HPC) 101 % of control

CC1CCC2(C)CCC3(C)C(=CCC4C5(C)CCC(Oc6ccc(O)cc6)C(C)(C)C5CCC43C)C2C1C(=O)O (stereo unspecified)
inactive: dose: 0.5 mg/kg/injection, schedule: Q01DX005 (ip), vehicle: DMSO 101 % of control | dose: 1.0 mg/kg/injection, schedule: Q01DX005 (ip), vehicle: DMSO 100 % of control | dose: 2.0 mg/kg/injection, schedule: Q01DX005 (ip), vehicle: DMSO 101 % of control | dose: 4.0 mg/kg/injection, schedule: Q01DX005 (ip), vehicle: DMSO 100 % of control

CCOC(=O)/C(C#N)=C(/SC)N1CC1
inactive: [5] 100 % of control | [6] 93 % of control | [2] 110 % of control and 90 % of control

CC1=CC(=O)[C@@H](O)[C@@]2(C)C1C[C@H]1OC(=O)[C@H](C/C=C(/C)C(C)C)[C@H]3C(C)C(O)C4(O)OC[C@@]31C42 (stereo partly specified)
inactive: dose: 1.0 mg/kg/injection, schedule: Q01DX005 (ip), vehicle: saline with Tween-80 100 % of control | dose: 2.0 mg/kg/injection, schedule: Q01DX005 (ip), vehicle: saline with Tween-80 96 % of control | dose: 4.0 mg/kg/injection, schedule: Q01DX005 (ip), vehicle: saline with Tween-80 95 % of control | dose: 8.0 mg/kg/injection, schedule: Q01DX005 (ip), vehicle: saline with Tween-80 101 % of control

CCOC(=O)C1(N=O)CCCCC1=O (stereo unspecified)
inactive: dose: 100.0 mg/kg/injection, schedule: Q01DX001 (ip), vehicle: alcohol 103 % of control | dose: 200.0 mg/kg/injection, schedule: Q01DX001 (ip), vehicle: alcohol 97 % of control | dose: 400.0 mg/kg/injection, schedule: Q01DX001 (ip), vehicle: alcohol 108 % of control

N#Cc1c(C(F)(F)F)cc(-c2cccs2)nc1C(C(=O)Nc1cc(Cl)c(Cl)cc1Cl)c1ccccc1 (stereo unspecified)
inactive: [9] 87 % of control | [10] 92 % of control | [11] 91 % of control

CC(O)C(NC(=O)OCc1ccccc1)C(=O)NC(Cc1ccccc1)C(=O)O (stereo not drawn) (Cbz-Thr-Phe-OH; configuration not given here)
inactive: [9] 100 % of control | [10] 101 % of control | [11] 101 % of control

c1n[nH]c2c1CCCC2
inactive: [7] 96 % of control | [8] 105 % of control | [12] 91 % of control | [13] 104 % of control

CC(C(=O)c1cc(Cl)cc(Cl)c1O)C1(O)C(=O)Nc2ccccc21 (stereo unspecified)
inactive: [1] 107 % of control | dose: 120.0 mg/kg/injection, schedule: Q01DX005 (ip), vehicle: saline with Tween-80 100 % of control | dose: 240.0 mg/kg/injection, schedule: Q01DX005 (ip), vehicle: saline with Tween-80 99 % of control

CCO[Si](O[Si](OCC)(c1ccccc1)c1ccccc1)(c1ccccc1)c1ccccc1
inactive: [12] 93 % of control | [13] 102 % of control | dose: 200.0 mg/kg/injection, schedule: Q01DX009 (ip), vehicle: saline 91 % of control

COC(=O)/C=C(\C)Oc1cc(Cl)c(Cl)cc1Cl
inactive: [4] 91 % of control | dose: 400.0 mg/kg/injection, schedule: Q01DX009 (ip), vehicle: saline with Tween-80 87 % of control

CCCC[N+]1(C)CCC(OC(=O)C(O)(c2ccccc2)C2CCCC2)C1 (stereo unspecified)
inactive: [5] 95 % of control | [6] 90 % of control | [2] 98 % of control and 89 % of control
